Results taken from PMC7613515, “Reading and erasing of the phosphonium analogue of trimethyllysine by epigenetic proteins” (Communications Chemistry, 2022).

Molecular target: T1, TAF3PHD (R857–K924) (Mus musculus, UniProt Q5HZG4)
T1 construct: TAF3PHD (R857–K924); made in house; host or cells: E. coli
T1 sequence (Q5HZG4 857-924 limits assumed): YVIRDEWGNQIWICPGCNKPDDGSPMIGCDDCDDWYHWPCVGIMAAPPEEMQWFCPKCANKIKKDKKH
Experiment: ITC, association of histone H3 peptides with TAF3PHD
Format: binding, human
Conditions: 25 °C, H3 1-10 peptide, Tris (50 mM), pH 7.5, from 3 to 5 experiments, ± SD
Excerpt: We investigated the thermodynamics of association of the H3KP4me3 peptide with five representative human reader domains containing either a PHD zinc finger or TTD, i.e. KDM5APHD3 (JARID1A-PHD3, residues M1489–V1641)[10], TAF3PHD (R857–K924)[22], BPTFPHD (L2583–N2751)[23], SGF29TTD (R115–K293)[24] and KDM4ATTD (JMJD2A, Q897-P1011)[25], selected on the basis of their preference for binding Ν^ε-trimethyllysine over other (non)methylation marks (Kme0 < Kme1 < Kme2 < Kme3), and their domain and aromatic cage diversity. The recombinant readers were produced in E. coli following reported procedures. Isothermal titration calorimetric (ITC) analyses were used to determine the dissociation constant (Kd), the Gibbs free energy of binding (ΔG°), the enthalpy of binding (ΔH°), and the entropy of binding (ΔS°). […] (Table 1, Fig. 2, Supplementary Fig. 1).
The following purified reader domains: TAF3PHD (R857-K924), KDM5APHD3 (JARID1A, M1489-V1641), BPTFPHD (L2583-N2751), KDM4ATTD (JMJD2A, Q897-P1011) and SGF29TTD (R115-K293) were prepared as reported[10],[22]–[26]. The histone lysine demethylase were produced and purified to high purity via reported procedures KDM3A (JMJD1A, T515-S1317)[41], KDM4AJmjC[39] (JMJD2A, M1-L359), KDM4EJmjC (JMJD2E, M1–Q337)[34] and KDM7B[40] (PHF8, M37-N483 [NP_001171]). KDM5DJmjC was produced using an N-terminal hexa-His tagged KDM4D (KDM4DM1-L358) DNA construct, transformed into BL21(DE3) competent cells for recombinant protein production. Colonies were used to inoculate of LB media (50 mL) containing kanamycin (50 µg·mL^−1) and chloramphenicol (34 µg·mL^−1), which was placed in a 37 °C shaker overnight. The starter culture (10 mL) was used to inoculate TB media (6 × 1 L) containing kanamycin (50 µg·mL^−1) in 2 L baffled shaker flasks. After reaching an of OD600 of ~0.8, the temperature was reduced to 18 °C; at OD600 ~0.9 the cells were induced by the IPTG (0.5 mM) addition. After shaking overnight, the culture was centrifuged (5000 rpm, 10 mins), the media was decanted, and the cell pellet was suspended in Lysis Buffer [HEPES (50 mM), NaCl (500 mM), imidazole (20 mM), glycerol (5%) and TCEP (0.5 mM) in water (pH 7.4)]. The suspension was lysed by passaging through a high-pressure cell breaker (Avestin – EmulsiFlex-C5) for three rounds. The lysate was cleared by centrifugation (60 minutes, 36,000 × g, 4 °C), then loaded onto a Ni NTA gravity column. […]
ITC studies followed a reported procedure. […] Histone peptide titrations were performed with the same reader batches. Solutions of the reader in buffer (25–40 µM) and of the histone H3 peptide (350–600 µM) in buffer were prepared. […] Heats of dilution for histone peptides determined in control experiments were subtracted from the titration binding data. […]

C[C@H](N)C(=O)N[C@@H](CCCNC(=N)N)C(=O)N[C@H](C(=O)N[C@@H](CCCC[P+](C)(C)C)C(=O)N[C@@H](CCC(N)=O)C(=O)N[C@H](C(=O)N[C@@H](C)C(=O)N[C@@H](CCCNC(=N)N)C(=O)N[C@@H](CCCCN)C(=O)N[C@@H](CO)C(N)=O)[C@@H](C)O)[C@@H](C)O [H3KP4me3]
-TΔS°: 1.1 ± 0.1 kcal/mol
ΔG°: -10.0 ± 0.1 kcal/mol
ΔH°: -11.1 ± 0.1 kcal/mol
